From ChEMBL document CHEMBL2021885, “Triphenylbutanamines: kinesin spindle protein inhibitors with in vivo antitumor activity” (J Med Chem, 2012)

Key:
[1] = system: K562; assay: cells; details: Homo sapiens, K562, 72 h
Description: Antiproliferative activity against human K562 cells after 72 hrs by Alamar blue assay

[2] = system: HCT-116; assay: Antiproliferative activity against human HCT116 cells after 72 hrs by Alamar blue assay; assay type: functional; details: HCT-116, 72 h
[3] = Antiproliferative activity against human hTERT-HME1 cells after 72 hrs by Alamar blue assay; assay type: cell-based
[4] = system: BXPC-3; assay: Antiproliferative activity against human BxPC3 cells after 72 hrs by Alamar blue assay; assay type: functional; details: BXPC-3, 72 h
[5] = system: NCI-H1299; assay: Antiproliferative activity against human NCI-H1299 cells after 72 hrs by Alamar blue assay; assay type: functional; details: NCI-H1299, 72 h
[6] = Intrinsic clearance in human hepatocytes assessed as per million cells; assay type: ADME, cell-based, Hepatocyte
[7] = system: Liver microsomes; assay: Intrinsic clearance in human liver microsomes assessed as per mg of protein; assay type: ADME, Microsome
[8] = system: Liver; assay: Intrinsic clearance in mouse liver microsomes assessed as per mg of protein; assay type: ADME, Microsome
[9] = target: T1, Kinesin-like protein KIF11 (Homo sapiens, UniProt P52732)
T1 sequence (P52732 whole entry): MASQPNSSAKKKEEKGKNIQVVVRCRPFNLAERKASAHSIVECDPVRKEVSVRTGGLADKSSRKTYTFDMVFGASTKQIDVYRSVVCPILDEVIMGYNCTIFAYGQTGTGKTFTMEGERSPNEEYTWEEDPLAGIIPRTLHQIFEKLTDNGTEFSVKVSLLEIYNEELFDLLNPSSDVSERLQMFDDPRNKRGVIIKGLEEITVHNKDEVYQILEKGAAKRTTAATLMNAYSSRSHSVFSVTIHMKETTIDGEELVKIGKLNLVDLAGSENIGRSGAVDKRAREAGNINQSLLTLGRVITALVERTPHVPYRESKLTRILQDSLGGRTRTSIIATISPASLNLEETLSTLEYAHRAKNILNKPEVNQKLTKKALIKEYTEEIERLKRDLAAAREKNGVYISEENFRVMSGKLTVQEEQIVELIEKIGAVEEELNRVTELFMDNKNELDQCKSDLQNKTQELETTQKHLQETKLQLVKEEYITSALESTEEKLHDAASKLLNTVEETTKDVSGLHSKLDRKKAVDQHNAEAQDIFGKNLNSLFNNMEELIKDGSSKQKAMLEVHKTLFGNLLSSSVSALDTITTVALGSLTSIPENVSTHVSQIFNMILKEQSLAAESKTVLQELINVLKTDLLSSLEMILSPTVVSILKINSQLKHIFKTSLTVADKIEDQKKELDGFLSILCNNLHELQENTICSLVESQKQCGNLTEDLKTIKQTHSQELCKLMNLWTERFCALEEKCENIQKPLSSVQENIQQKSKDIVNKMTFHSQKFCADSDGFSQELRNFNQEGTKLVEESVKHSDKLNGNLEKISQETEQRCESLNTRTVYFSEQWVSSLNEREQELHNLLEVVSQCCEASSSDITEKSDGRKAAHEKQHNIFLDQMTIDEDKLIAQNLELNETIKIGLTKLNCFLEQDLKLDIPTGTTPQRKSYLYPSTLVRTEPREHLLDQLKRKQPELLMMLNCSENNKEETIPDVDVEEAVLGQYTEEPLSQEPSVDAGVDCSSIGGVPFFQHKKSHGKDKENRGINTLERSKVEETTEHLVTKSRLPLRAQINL

[10] = Distribution coefficient, log D of the compound at pH 7.4; assay type: physicochemical; details: octanol/water
[11] = Dissociation constant, pKa of the compound; assay type: physicochemical
[12] = Lipophilicity, Log P of the compound; assay type: physicochemical; details: octanol/water
[13] = Half life at pH 1.0 assessed as compound hydrolysis; assay type: physicochemical; details: buffer
[14] = target: T1, Kinesin-like protein KIF11; remark: listed apart in the source
[15] = Apparent permeability of the compound by PAMPA method; assay type: ADME
[16] = Turbidimetric solubility of the compound at pH 6; assay type: physicochemical; details: buffer
[17] = Turbidimetric solubility of the compound at pH 2; assay type: physicochemical; details: buffer
[18] = Turbidimetric solubility of the compound at pH 7.4; assay type: physicochemical; details: buffer

| SMILES | GI50 [1] | GI50 [2] | GI50 at 72 h [3] | GI50 [4] | GI50 [5] | further results |
| --- | --- | --- | --- | --- | --- | --- |
| NCCCC(c1ccccc1)(c1ccccc1)c1cccc(Cl)c1 | 596 nM |  |  |  |  |  |
| Cc1ccc(C(CC[C@@H](N)C(=O)O)(c2ccccc2)c2ccccc2)cc1 | 82 nM | 40 nM | 27 nM | 85 nM | 111 nM |  |
| Cc1cccc(C(CC[C@@H](N)C(=O)O)(c2ccccc2)c2ccccc2)c1 |  | 51 nM | 26 nM | 75 nM | 132 nM | CLH [6]: Stable; CLH [7]: Stable; CLH [8]: Stable |
| Cc1ccc(C(SC[C@H](N)C(=O)O)(c2ccccc2)c2ccccc2)cc1 | 242 nM | 130 nM | 57 nM | 284 nM | 242 nM | Ki [9]: 13.6 nM |
| Cc1ccc(C(=O)N(CCCN)[C@@H](c2nc3cc(Cl)ccc3c(=O)n2Cc2ccccc2)C(C)C)cc1 [ISPINESIB] | 71 nM |  | 32 nM |  |  | logD [10]: 2.66; CLH [6]: 0.75 µL/min; pKa [11]: 9.34; CLH [7]: Stable; logP [12]: 4.75; CLH [8]: Stable |
| N[C@@H](CNC(c1ccccc1)(c1ccccc1)c1ccccc1)C(=O)O |  |  |  |  |  | t1/2 [13]: <= 2.9 hr |
| N[C@@H](CSC(c1ccccc1)(c1ccccc1)c1cccc(Cl)c1)C(=O)O | 2400 nM |  |  |  |  | Ki [14]: 89.9 nM |
| NCCCC(c1ccccc1)(c1ccccc1)c1ccc(Cl)cc1 | 337 nM | 230 nM | 308 nM | 2310 nM | 828 nM |  |
| NCCOC(c1ccccc1)(c1ccccc1)c1ccccc1 |  |  |  |  |  | t1/2 [13]: 2.5 h |
| CN(C)C(=O)c1ccc(C(SCCN)(c2ccccc2)c2ccccc2)cc1 | 2910 nM |  |  |  |  |  |
| Cc1cccc(C(CC[C@H](N)C(=O)O)(c2ccccc2)c2ccccc2)c1 |  | 95 nM | 42 nM | 180 nM | 281 nM | CLH [6]: Stable; CLH [7]: Stable; CLH [8]: Stable |
| Cc1cccc(C(SCCN)(c2ccccc2)c2ccccc2)c1 | 698 nM |  |  |  |  |  |
| NCCSC(c1ccccc1)(c1ccccc1)c1cccc(CN)c1 | 2020 nM |  |  |  |  |  |
| NC(CCC(c1ccccc1)(c1ccccc1)c1ccccc1)C(=O)O (racemic) | 865 nM | 828 nM | 494 nM | 1490 nM | 2820 nM |  |
| CC(=O)c1cccc(C(SC[C@H](N)C(=O)O)(c2ccccc2)c2ccccc2)c1 | 964 nM |  |  |  |  |  |
| CNC(=O)c1ccc(C(SCCN)(c2ccccc2)c2ccccc2)cc1 | 3950 nM |  |  |  |  |  |
| NCCSC(c1ccccc1)(c1ccccc1)c1ccccc1 | 2290 nM | 1210 nM | 1610 nM | 2460 nM | 2300 nM | Ki [9]: 152 nM; Ki [14]: 246 nM |
| NCCSC(c1ccccc1)(c1ccccc1)c1ccc(C(N)=O)cc1 | 4340 nM |  |  |  |  |  |
| NCCSC(c1ccccc1)(c1ccccc1)c1cccc(Cl)c1 | 1040 nM |  |  |  |  | Ki [14]: 298 nM |
| NC(=O)c1cccc(C(SC[C@H](N)C(=O)O)(c2ccccc2)c2ccccc2)c1 | 16700 nM |  |  |  |  | Papp [15]: impermeable |
| CSc1cccc(C(SCCN)(c2ccccc2)c2ccccc2)c1 | 1470 nM |  |  |  |  | Ki [14]: 520 nM |
| Cc1cccc(C(CCCN)(c2ccccc2)c2ccccc2)c1 |  |  | 150 nM |  |  | logD [10]: 2.33; solubility kinetic [16]: > 100 µM; solubility kinetic [17]: > 100 µM; CLH [6]: 3.93 µL/min; pKa [11]: 10.1; CLH [7]: Stable; logP [12]: 4.69; solubility kinetic [18]: > 100 µM |
| CC(=O)c1ccc(C(SC[C@H](N)C(=O)O)(c2ccccc2)c2ccccc2)cc1 | 4270 nM |  |  |  |  | Ki [14]: 272 nM |
| N[C@@H](CSC(c1ccccc1)(c1ccccc1)c1ccc2ccccc2c1)C(=O)O | 247 nM | 153 nM | 119 nM | 245 nM | 227 nM | Ki [9]: 4.2 nM |
| CN(C)C(=O)c1cccc(C(SCCN)(c2ccccc2)c2ccccc2)c1 | 2830 nM |  |  |  |  | Ki [14]: 6060 nM |
| COc1ccc(C(SC[C@H](N)C(=O)O)(c2ccccc2)c2ccccc2)cc1 |  |  | 81 nM |  |  |  |
